Source: publication PMC10563079 (Molecules, 2023)
Several values for one entry are separate records, joined by “and”; a condition that tells them apart may be missing. Equal values may be shown once. Read-outs that look alike come from different tables or passages of the source. Bridge positions count the residues as written; N and C are the ends. Ends that are not written are not given here. Peptide text beside a SMILES is read from it.

Tests used:
sPHGDH (1-307) = target: T1, sPHGDH (1-307) (Homo sapiens, UniProt O43175); test: sPHGDH enzyme activity assay (NADH fluorescence); type: biochemical; conditions: sPHGDH; 12 h pre-incubation; read-out: IC50 Value
T1 construct: the truncated version of PHGDH (sPHGDH, 1-307); made in house
T1 sequence (O43175 1-307): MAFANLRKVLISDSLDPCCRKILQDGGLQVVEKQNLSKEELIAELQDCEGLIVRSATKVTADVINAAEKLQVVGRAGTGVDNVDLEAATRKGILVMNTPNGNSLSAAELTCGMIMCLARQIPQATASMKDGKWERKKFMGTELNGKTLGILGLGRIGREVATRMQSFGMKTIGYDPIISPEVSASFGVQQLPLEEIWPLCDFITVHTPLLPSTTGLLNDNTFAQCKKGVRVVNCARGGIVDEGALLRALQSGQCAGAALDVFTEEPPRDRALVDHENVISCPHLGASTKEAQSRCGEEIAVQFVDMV
Experimental: (§1) PHGDH activity in the presence of peptides was measured in 96-well plates (100 μL per well) at 25 °C, through monitoring the NADH fluorescence (excitation at 360 nm and emission at 460 nm) over time. PAST1 and its substrate glutamate were also included in order to prevent product inhibition. In the enzyme assays, protein expression and purification, including the truncated version of PHGDH (sPHGDH, 1-307), the full-length PHGDH (1-533), and PAST1, were carried out as described in our previous papers. To evaluate the effects of peptides on enzyme activity, the peptides were pre-incubated with enzyme samples (sPHGDH 453.3 nM or PHGDH 30.9 nM) in the assay buffer (HEPES 50 mM, pH 7.5, 10 mM MgCl2, and 1 mM EDTA) for 12 h. Then, 1.98 μM PAST1, 1 mM NAD^+, and 30 mM glutamate were added and pre-incubated for 10 min before initiating the enzyme reaction via the addition of the substrate (1 mM 3-PG). Fluorescence signals were recorded for 3 min with the kinetics-reading mode of the Biotek plate reader (Synergy). IC50 values were obtained through fitting the data using a three-parameter Hill model of the graph of log dose against the percentage inhibition from three repeated experiments. For those peptides containing two disulfide bonds, a second step of oxidation reaction was carried out to generate the second disulfide pair. […] The purified Acm-protected peptide was then treated with iodine (I2, 1 wt% in MeOH), dropwise under acidic conditions until the solution became brown.

sPHGDH = target: T2, sPHGDH (Homo sapiens, UniProt O43175); test: Microscale Thermophoresis (MST) binding assay
T2 construct: the truncated version of PHGDH (sPHGDH, 1-307); made in house
T2 sequence (O43175 1-307): T1 sequence (O43175 1-307)
Experimental: In this study, we first used Microscale Thermophoresis assays (MST) to evaluate whether the active peptides found in the enzyme inhibition assay directly bind sPHGDH (Table 2).
The binding affinity between the recombinant sPHGDH and cyclic peptides was measured with a NanoTemper Monolith NT.115 instrument (NanoTemper Technologies, Munich, Germany). sPHGDH was first adjusted to a concentration of 10 μM and then labeled with Monolith™ NT.115 Protein Labeling Kit RED-NHS (NanoTemper Technologies, Germany), according to the protocol of the manufacturer. After the protein labeling experiment was completed, sPHGDH was diluted with binding buffer (50 mM HEPES, pH 7.5, 1 mM EDTA, 10 mM MgCl2, 100 mM NaCl, and 0.005% Tween 20) to ensure that the fluorescent intensity of sPHGDH during the MST assay was about 500 RU. In this assay, the final concentration of sPHGDH after mixing with the peptide was 20 nM. Subsequently, the peptides were serially diluted in binding buffer (16 points, 1:2 dilutions, from 0.5 mM), then mixed and incubated with an equal volume of diluted sPHGDH at room temperature for 16 h. After incubation, the samples were loaded into premium treated capillaries and measured by the NanoTemper Monolith NT.115 instrument (NanoTemper Technologies, Germany). […]

[1] = target: T3, full-length PHGDH (1-533) (Homo sapiens, UniProt O43175); test: full-length PHGDH enzyme activity assay (NADH fluorescence); type: biochemical; conditions: IC50 value (μM), full-length PHGDH activity
T3 construct: the full-length PHGDH (1-533); made in house
T3 sequence (O43175 1-533): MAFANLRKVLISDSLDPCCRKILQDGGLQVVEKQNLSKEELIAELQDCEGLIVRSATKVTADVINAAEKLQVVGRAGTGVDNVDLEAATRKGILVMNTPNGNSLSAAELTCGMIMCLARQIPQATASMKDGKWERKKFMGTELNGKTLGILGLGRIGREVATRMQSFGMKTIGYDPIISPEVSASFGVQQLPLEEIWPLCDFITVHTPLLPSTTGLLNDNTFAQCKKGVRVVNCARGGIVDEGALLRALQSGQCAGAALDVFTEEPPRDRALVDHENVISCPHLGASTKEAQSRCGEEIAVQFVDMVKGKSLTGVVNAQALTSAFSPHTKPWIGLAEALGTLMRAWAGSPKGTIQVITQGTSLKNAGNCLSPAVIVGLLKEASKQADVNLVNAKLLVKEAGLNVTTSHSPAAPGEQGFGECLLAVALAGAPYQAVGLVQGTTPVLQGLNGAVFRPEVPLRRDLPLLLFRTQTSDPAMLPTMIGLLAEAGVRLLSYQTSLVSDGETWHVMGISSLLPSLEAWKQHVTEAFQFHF
Experimental: as §1

[2] = target: truncated version of PHGDH (sPHGDH, 1-307) (human) (UniProt O43175)
[3] = target: truncated version of PHGDH (sPHGDH, 1-307) (human) (UniProt O43175); remark: listed apart in the source
[4] = target: the molecule itself; test: cross-linking; sPHGDH 5 µM with peptides (0, 10, 50, 100, 250, 500 µM) and 2.5 mM BS3 in PBS (40 mM, pH 7.3), 25 °C, 30 min; SDS/PAGE; dimer to monomers

Question: With CSCC[C@@H]1NC(=O)[C@H](CO)NC(=O)[C@H](CC(C)C)NC(=O)[C@H]([C@@H](C)O)NC(=O)[C@H](C)NC(=O)[C@H](CCC(N)=O)NC(=O)[C@@H]2CCCN2C(=O)[C@H]([C@@H](C)O)NC(=O)[C@@H](NC(C)=O)CSSC[C@@H](C(=O)O)NC(=O)[C@H](CCCCN)NC(=O)[C@H](CCCCN)NC(=O)[C@H](CCC(N)=O)NC(=O)[C@H](CCC(=O)O)NC(=O)[C@H](Cc2c[nH]c3ccccc23)NC(=O)[C@H](CO)NC(=O)CNC(=O)[C@H](CC(N)=O)NC(=O)[C@H](CCCCN)NC1=O [Cyc1-12, C1TPQA TLSMK NGSWE QKKC19] (Ac-CTPQATLSMKNGSWEQKKC-OH; disulfide 1-19) as the molecule, how does the IC50 (sPHGDH (1-307)) read?
Answer: 5.6 ± 1.4 µM

Question: And the Kd (sPHGDH; MST, sPHGDH 20 nM, 1:1 binding mode, read-out: KD)?
Answer: 13.4 ± 3.1 µM

Question: With CSCC[C@@H]1NC(=O)[C@@H]2CSSC[C@H](NC(=O)[C@H](Cc3c[nH]c4ccccc34)NC(=O)[C@H](CCCCN)NC(=O)CNC(=O)[C@H](CC(=O)O)NC(=O)[C@H](CCCNC(=N)N)NC1=O)C(=O)N[C@@H](CCCNC(=N)N)C(=O)N[C@@H](CCCCN)C(=O)N[C@@H](CCCCN)C(=O)N[C@H](C(=O)O)CSSC[C@H](NC(C)=O)C(=O)N[C@@H]([C@@H](C)O)C(=O)N1CCC[C@H]1C(=O)N[C@@H](CCC(N)=O)C(=O)N[C@@H](C)C(=O)N[C@@H]([C@@H](C)O)C(=O)N[C@@H](C)C(=O)N2 [Cyc2-3, C1TPQA TAC8MR DGKWC15 RKKC19] (Ac-CTPQATACMRDGKWCRKKC-OH; disulfide 1-19, 8-15) as the molecule, how does the IC50 [1] read?
Answer: 53.1 µM and 32.9 µM

Question: And the Kd (sPHGDH)?
Answer: 5.1 ± 1 µM

B1: cyclic peptide cyc1-5 (peptide)
peptide: CTPQATASMLDGKWEWKKC
modifications: disulfide 1-19; not fully specified (N-terminus); printed as C_1_TPQA TASML DGKWE WKKC_19_
Question: Which IC50 of inhibition of sPHGDH enzyme activity (NADH fluorescence); the pair blocked is the sPHGDH homo-dimer (m1+m1) [2] does the source give for B1 here?
Answer: 13.4 µM

Question: What about the IC50 of inhibition of sPHGDH enzyme activity (NADH fluorescence); the pair blocked is the sPHGDH homo-dimer (m1+m1), differs from the table [3] of the same molecule?
Answer: 13.7 µM

B2: truncated version of PHGDH (sPHGDH, 1-307) (domain or fragment, human, UniProt O43175 1-307, looked up)
chain: T1 sequence (O43175 1-307)
modifications: labelled with Monolith NT.115 Protein Labeling Kit RED-NHS (in the MST assay only)
notes: human phosphoglycerate dehydrogenase (PHGDH), catalytic unit, residues 1-307; Exists predominantly as a homo-dimer with a small fraction of monomer; also called catalytic unit of PHGDH; source: recombinant
Question: How did the “stoichiometry N” value [4] turn out when B2 was run?
Answer: 2
